Test results from patent US11696921B2, “Synthetic composition for microbiota modulation” (GLYCOM A/S, priority 2015, dated 2023).

Tests used:
[1] = tested on: totality of B. longum + B. bifidum + B. animalis lactis + B. angulatum; experiment: Faecal microbiota / Bifidobacterium profiling after 2 weeks' daily HMO consumption by healthy adults; assay type: in vivo, human; details: oral
Procedure: (§1) A total of 100 male and female healthy adults are recruited to participate in the study. After a screening visit and run-in period of 1-2 weeks, the participants are selected and randomized into ten groups, each of 10 subjects. One group is administered a placebo product containing 2 grams of glucose. The remaining 9 groups are administered treatment product containing a) 20 g of 2′-FL, b) 10 g of 2′-FL, c) 5 g of 2′-FL, d) 20 g of LNnT, e) 10 g of LNnT, f) 5 g of LNnT, g) 20 g of a 2:1 mixture of 2′-FL and LNnT, h) 10 g of a 2:1 mixture of 2′-FL and LNnT, and i) 5 g of a 2:1 mixture of 2′-FL and LNnT for 2 weeks (the amounts correspond to a daily dose). The placebo and treatment products are in powder form in a unit dosage container.
(§2) At the second visit, eligibility criteria are checked and eligible subjects are randomised to the ten arms in the trial (treatment groups and placebo group). The faecal samples are collected and equipment for new samples are distributed. Participants are familiarised with an interactive internet enabled system which recorded data daily and are provided with either treatment or control products. Subjects are reminded not to change their usual diet during the study. Blood samples are collected for biomarker studies. The faecal samples are stored at −80° C. until analysis.
(§3) The study runs for 2 weeks with the participants consuming either a placebo or a treatment product daily. Participants are instructed to consume the products in the morning with breakfast. Compliance is monitored through the interactive internet enabled system.
(§4) At the end of the study, each participant has an exit visit with the medical team. Faecal samples and blood samples are collected.
(§5) To assess the microbiota profile, DNA is extracted from the faecal samples using a 96-well PowerSoil DNA Isolation Kit (MO-BIO). A minimum of one sample-well per plate is kept empty to serve as a negative control during PCR. PCR is done with the forward primer S-D-Bact-0341-b-S-17 and reverse primer S-D-Bact-0785-a-A-21 (Klindworth et al. Nucleic Acids Res. 41, e1 (2013)) with Illumina adapters attached. These are universal bacterial 16S rDNA primers, which targeted the V3-V4 region. The following PCR program is used: 98° C. for 30 sec, 25× (98° C. for 10 s, 55° C. for 20 s, 72° C. for 20 s), 72° C. for 5 min. Amplification is verified by running the products on a 1% agarose gel. Barcodes are added in a nested PCR using the Nextera Index Kit V2 (Illumina) with the following PCR program: 98° C. for 30 sec, 8× (98° C. for 10 s, 55° C. for 20 s, 72° C. for 20 s), 72° C. for 5 min. Attachment of primers is verified by running the products on a 1% agarose gel. Products from the nested PCR are normalized using the SequalPrep Normalization Plate Kit and pooled. Pooled libraries are concentrated by evaporation and the DNA concentration of pooled libraries is measured on a Qubit fluorometer using the Qubit High Sensitivity Assay Kit (Thermo Fisher Scientific). Sequencing is done on a MiSeq desktop sequencer using the MiSeq Reagent Kit V3 (Illumina) for 2×300 bp paired-end sequencing. The 64-bit version of USEARCH is used for bioinformatical analysis of the sequence data.
(§6) To assess the Bifidobacterium community, ITS profiling of DNA samples is performed according to Milani et al. FEMS Microbiol. Ecol. 90, 493 (2014). […] Both B. adolescentis and B. pseudocatenulatum are members of the B. adolescentis phylogenetic group. It can be seen that oral ingestion of the HMOs clearly increases the abundance of B. adolescentis and/or B. pseudocatenulatum in the microbiota of healthy adults, as well as their relative abundance compared to the totality of other Bifidobacterium species.

[2] = tested on: B. adolescentis phylogenetic group; experiment: as above; assay type: in vivo, human; details: oral
Procedure: as §1, §2, §3, §4, §5, §6

Compound | percentage increase of totality of B. longum + B. bifidum + B. animalis lactis + B. angulatum in human faeces ([1]; 5 g daily dose) [%] | percentage increase of totality of B. longum + B. bifidum + B. animalis lactis + B. angulatum in human faeces ([1]; 10 g daily dose) [%] | percentage increase of totality of B. longum + B. bifidum + B. animalis lactis + B. angulatum in human faeces ([1]; 20 g daily dose) [%] | percentage increase of B. adolescentis phylogenetic group in human faeces ([2]; 5 g daily dose) [%] | percentage increase of B. adolescentis phylogenetic group in human faeces ([2]; 10 g daily dose) [%] | percentage increase of B. adolescentis phylogenetic group in human faeces ([2]; 20 g daily dose) [%]
2′-fucosyllactose [2′-FL] | 0 | 20 | 15 | 50 | 325 | 120
CC(=O)N[C@H]1[C@H](O[C@H]2[C@@H](O)[C@@H](CO)O[C@@H](O[C@H]3[C@H](O)[C@@H](O)C(O)O[C@@H]3CO)[C@@H]2O)O[C@H](CO)[C@@H](O[C@@H]2O[C@H](CO)[C@H](O)[C@H](O)[C@H]2O)[C@@H]1O (mixture of isomers) [LNnT, lacto-N-neotetraose] | 50 | 130 | 105 | 90 | 195 | 185
